System: 772245-204-R-J1-PDC complex spheroid growth
Assay: Anticancer human tumor 772245-204-R-J1-PDC patient-derived rhabdomyosarcoma cell line growth inhibition [Asc]
Conditions: for IC50: curve of first compound; for viability, T/C: stronger effect = lower value
Experimental: Multicellular complex tumor spheroid response to apoptosis pathway targeting inhibitors Alrizomadlin, Pelcitoclax, and Dasminapant in combination with a variety of drugs and investigational agents in selected tumor cell lines
The MDM2 inhibitor alrizomadlin, the Bcl-2/Bcl-xL inhibitor pelcitoclax, and the IAPs inhibitor dasminapant were evaluated both individually and in combination with standard of care and investigational anticancer small molecules within a complex spheroid model of solid tumors. . Complex spheroids include a stromal component modeled by human endothelial cells (HUVEC) and fibroblasts modeled by human mesenchymal stem cells (MSCs). The concentration ranges selected for each drug and investigational agent were based upon clinically achievable concentrations if the clinical Cmax of the agent was known.
Compounds. The drugs and investigational agents: alrizomadlin (APG-115; NSC831270), pelcitoclax (APG-1252; NSC835773), dasminapant (APG-1387;NSC834197), TAK-243 (NSC785004), copanlisib (NSC809693), olaparib (NSC753686), talazoparib (NSC767125), cobimetinib (NSC 768068), eltanexor (KPT-8602, NSC 794443), abemaciclib (NSC 768073), sotorasib (NSC818433), adagrasib (NSC 831453), MRTX-1133 (NSC 836407), Iadademestat (ORY1001, NSC 806812), and RMC-4630 (NSC839698), were obtained from the NCI Developmental Therapeutics Program Chemical Repository. The FDA-approved anticancer drug set is available from the Developmental Therapeutics Program at https://dtp.cancer.gov/organization/dscb/obtaining/available plates.htm. […] The stock solutions were prepared in dimethyl sulfoxide (DMSO, Sigma-Aldrich, St. Louis, MO, cat. D2650) at 800-fold the tested concentration and stored at -70 degrees C prior to their use. All drugs and investigational agents were tested over a range starting from a high concentration at or near the clinical Cmax and decreasing in half-log increments. If the clinical Cmax for an agent had not been determined, the highest concentration tested was 10 microM.
The patient-derived cancer (PDC) cell lines include five colon adenocarcinomas: 186277-243-T-J2-PDC, 616215-338-R-J1-PDC, 439559-082-T-J2-PDC, 463943-066-T-J2-PDC, and 519858-162-T-J1-PDC; three pancreatic carcinomas: 323965-272-R-J2-PDC, 521955-158-R6-J3-PDC, and 521955-158-R2-J5-PDC; two uterine sarcomas: 327498-152-R-J2-PDC and 993429-296-R-J1-PDC; two rhabdomyosarcomas: 755483-174-R-J1-PDC and 772245-204-R-J1-PDC; two soft tissue sarcomas: 126254-015-R-J1-PDC and 494315-158-R-J1-PDC; two malignant fibrous histiocytomas: 317291-083-R-J1-PDC and 596521-263-R-J1-PDC; two breast carcinomas: 171881-019-R-J1-PDC and 885512-296-R-J2-PDC; and one ovarian carcinoma: 6556581-035-R-J-PDC were obtained from the NCI PDMR, (https://pdmr.cancer.gov). The established cell lines HSSY-2 synovial sarcoma (RRID:CVCL 8719), SYO-1 synovial sarcoma (RRID:CVCL_7146), MPNST malignant peripheral neural sheath tumor were obtained from the Sloan Kettering Institute. The following established cell lines were purchased from the American Type Culture Collection (ATCC, Manassas, VA), Sor the received from the NCI repository:, PANC-1 pancreatic carcinoma (CRL-1469, RRID:CVCL_0480), OVCAR-5 ovarian carcinoma (RRID:CVCL_1628), OVCAR-8 ovarian carcinoma (RRID:CVCL_1629), , MCF-7 breast carcinoma (CRL-12584, RRID:CVCL_0031), MDA-MB-231 breast carcinoma (CRL-12532, RRID:CVCL_0062), NCI-H1876 small cell lung carcinoma (CRL-5902, RRID:CVCL_1503), NCI-H510A small cell lung carcinoma (HTB-184, RRID:CVCL_1565), NCI-H1417 (CRL-5869, RRID:CVCL_1469), and NCI-H196 small cell lung carcinoma (CRL-5823, RRID:CVCL_1509). Dr. Peter Houghton (Greehey Children's Cancer Research Institute, University of Texas Health Science Center, San Antonio, TX) provided Rh-18 rhabdomyosarcoma (RRID:CVCL_1659). Pooled donor human umbilical vein endothelial cells (HUVEC, Lonza, cat. CC-2519) and human mesenchymal stem cells (hMSC, Lonza, cat. PT-2501) were purchased from Lonza (Walkersville, MD).
Cell Culture. […]

[1] = second compound 0.03 µM, first compound 0.0316 µM
[2] = second compound 0.03 µM, first compound 0.1 µM
[3] = second compound 0.0949 µM, first compound 0.0316 µM
[4] = second compound 0.0949 µM, first compound 0.1 µM
[5] = second compound 0.3 µM, first compound 0.0316 µM
[6] = second compound 0.3 µM, first compound 0.1 µM
[7] = second compound 0.949 µM, first compound 0.0316 µM
[8] = second compound 0.949 µM, first compound 0.1 µM
[9] = second compound 3 µM, first compound 0.0316 µM
[10] = second compound 3 µM, first compound 0.1 µM
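Further: compound exposure lasted seven days.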
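Wherever viability, T/C is given: 100% = DMSO vehicle control viability.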

For `Cn1ncnc1[C@H]1c2n[nH]c(=O)c3cc(F)cc(c23)N[C@@H]1c1ccc(F)cc1` + CCN1C(C(=O)NC23CCC(C(=O)O)(CC2)CC3)C(c2cccc(Cl)c2F)C2(C(=O)Nc3cc(Cl)ccc32)C12CCCCC2, which IC50 (second compound 0.03 µM) is on record?
Its IC50 is > 0.1 µM.

What about the IC50 (second compound 0.0949 µM) of the same molecule?
The IC50 was > 0.1 µM.

And the IC50 (second compound 0.3 µM)?
Its IC50 is > 0.1 µM.

What about the IC50 (second compound 0.949 µM) of the same molecule?
The IC50 was > 0.1 µM.

And the IC50 (second compound 3 µM)?
Its IC50 is > 0.1 µM.

What about the viability, T/C (second compound 0.03 µM, first compound 0.000316 µM) of the same molecule?
The viability, T/C was 118%.

And the viability, T/C (second compound 0.03 µM, first compound 0.001 µM)?
The viability, T/C was 106%.

And the viability, T/C (second compound 0.03 µM, first compound 0.00316 µM)?
The viability, T/C was 95%.

What about the viability, T/C (second compound 0.03 µM, first compound 0.01 µM) of the same molecule?
The viability, T/C was 85.2%.

What about the viability, T/C [1] of the same molecule?
Its viability, T/C is 86.3%.

What about the viability, T/C [2] of the same molecule?
Its viability, T/C is 81.9%.

And the viability, T/C (second compound 0.0949 µM, first compound 0.000316 µM)?
The viability, T/C was 103%.

What about the viability, T/C (second compound 0.0949 µM, first compound 0.001 µM) of the same molecule?
Its viability, T/C is 112%.

And the viability, T/C (second compound 0.0949 µM, first compound 0.00316 µM)?
The viability, T/C was 110%.

What about the viability, T/C (second compound 0.0949 µM, first compound 0.01 µM) of the same molecule?
The viability, T/C was 88.2%.

And the viability, T/C [3]?
The viability, T/C was 88.5%.

What about the viability, T/C [4] of the same molecule?
Its viability, T/C is 91.9%.

What about the viability, T/C (second compound 0.3 µM, first compound 0.000316 µM) of the same molecule?
The viability, T/C was 116%.

What about the viability, T/C (second compound 0.3 µM, first compound 0.001 µM) of the same molecule?
Its viability, T/C is 115%.

What about the viability, T/C (second compound 0.3 µM, first compound 0.00316 µM) of the same molecule?
Its viability, T/C is 107%.

What about the viability, T/C (second compound 0.3 µM, first compound 0.01 µM) of the same molecule?
Its viability, T/C is 95.2%.

And the viability, T/C [5]?
The viability, T/C was 93%.

And the viability, T/C [6]?
The viability, T/C was 89.6%.

And the viability, T/C (second compound 0.949 µM, first compound 0.000316 µM)?
Its viability, T/C is 94.2%.

And the viability, T/C (second compound 0.949 µM, first compound 0.001 µM)?
Its viability, T/C is 99.1%.

And the viability, T/C (second compound 0.949 µM, first compound 0.00316 µM)?
The viability, T/C was 119%.

And the viability, T/C (second compound 0.949 µM, first compound 0.01 µM)?
Its viability, T/C is 92.3%.

And the viability, T/C [7]?
The viability, T/C was 75.4%.

What about the viability, T/C [8] of the same molecule?
Its viability, T/C is 76.6%.

And the viability, T/C (second compound 3 µM, first compound 0.000316 µM)?
Its viability, T/C is 82.7%.

What about the viability, T/C (second compound 3 µM, first compound 0.001 µM) of the same molecule?
The viability, T/C was 94%.

And the viability, T/C (second compound 3 µM, first compound 0.00316 µM)?
The viability, T/C was 75.8%.

What about the viability, T/C (second compound 3 µM, first compound 0.01 µM) of the same molecule?
The viability, T/C was 65.9%.

And the viability, T/C [9]?
The viability, T/C was 70.8%.

What about the viability, T/C [10] of the same molecule?
The viability, T/C was 62.5%.

With `O=C(c1cc(Cc2n[nH]c(=O)c3ccccc23)ccc1F)N1CCN(C(=O)C2CC2)CC1` + CCN1C(C(=O)NC23CCC(C(=O)O)(CC2)CC3)C(c2cccc(Cl)c2F)C2(C(=O)Nc3cc(Cl)ccc32)C12CCCCC2 as the molecule, how does the IC50 (second compound 0.03 µM) read?
Its IC50 is > 10 µM.

And the IC50 (second compound 0.0949 µM)?
Its IC50 is > 10 µM.

What about the IC50 (second compound 0.3 µM) of the same molecule?
Its IC50 is > 10 µM.

And the IC50 (second compound 0.949 µM)?
Its IC50 is > 10 µM.

What about the IC50 (second compound 3 µM) of the same molecule?
The IC50 was > 10 µM.

What about the viability, T/C [1] of the same molecule?
The viability, T/C was 102%.

What about the viability, T/C [2] of the same molecule?
The viability, T/C was 113%.

What about the viability, T/C (second compound 0.03 µM, first compound 0.316 µM) of the same molecule?
The viability, T/C was 93.7%.

And the viability, T/C (second compound 0.03 µM, first compound 1 µM)?
The viability, T/C was 95.2%.

What about the viability, T/C (second compound 0.03 µM, first compound 3.16 µM) of the same molecule?
The viability, T/C was 87.3%.

What about the viability, T/C (second compound 0.03 µM, first compound 10 µM) of the same molecule?
The viability, T/C was 70.1%.

And the viability, T/C [3]?
The viability, T/C was 108%.

What about the viability, T/C [4] of the same molecule?
The viability, T/C was 113%.

What about the viability, T/C (second compound 0.0949 µM, first compound 0.316 µM) of the same molecule?
Its viability, T/C is 97.2%.

What about the viability, T/C (second compound 0.0949 µM, first compound 1 µM) of the same molecule?
The viability, T/C was 100%.

And the viability, T/C (second compound 0.0949 µM, first compound 3.16 µM)?
The viability, T/C was 79.7%.

And the viability, T/C (second compound 0.0949 µM, first compound 10 µM)?
The viability, T/C was 72%.

And the viability, T/C [5]?
The viability, T/C was 121%.

And the viability, T/C [6]?
The viability, T/C was 115%.

And the viability, T/C (second compound 0.3 µM, first compound 0.316 µM)?
The viability, T/C was 102%.

And the viability, T/C (second compound 0.3 µM, first compound 1 µM)?
The viability, T/C was 93.1%.

What about the viability, T/C (second compound 0.3 µM, first compound 3.16 µM) of the same molecule?
The viability, T/C was 92%.

And the viability, T/C (second compound 0.3 µM, first compound 10 µM)?
The viability, T/C was 69.2%.

And the viability, T/C [7]?
Its viability, T/C is 101%.

What about the viability, T/C [8] of the same molecule?
Its viability, T/C is 92.9%.

What about the viability, T/C (second compound 0.949 µM, first compound 0.316 µM) of the same molecule?
Its viability, T/C is 99.6%.

What about the viability, T/C (second compound 0.949 µM, first compound 1 µM) of the same molecule?
Its viability, T/C is 88.3%.

What about the viability, T/C (second compound 0.949 µM, first compound 3.16 µM) of the same molecule?
The viability, T/C was 73.3%.

And the viability, T/C (second compound 0.949 µM, first compound 10 µM)?
The viability, T/C was 63.8%.

What about the viability, T/C [9] of the same molecule?
Its viability, T/C is 77.2%.

What about the viability, T/C [10] of the same molecule?
Its viability, T/C is 80.4%.

And the viability, T/C (second compound 3 µM, first compound 0.316 µM)?
Its viability, T/C is 84.1%.

What about the viability, T/C (second compound 3 µM, first compound 1 µM) of the same molecule?
Its viability, T/C is 74.7%.

What about the viability, T/C (second compound 3 µM, first compound 3.16 µM) of the same molecule?
The viability, T/C was 55.8%.

What about the viability, T/C (second compound 3 µM, first compound 10 µM) of the same molecule?
The viability, T/C was 62.5%.

— PubChem BioAssay AID1963433 (Molecular Pharmacology Branch, DTP, NCI, 2024)
